Patent US20240043442A1, “SELECTIVE ESTROGEN RECEPTOR DEGRADERS AND USES THEREOF” (InventisBio LLC, priority 2016, published 2024)
Read-outs that look alike come from different tables or passages of the source.

Assays:
[1] = tested on: breast cancer cell line MCF-7; experiment: MCF-7 cell growth study (celltiter-glo luminescent viability assay); type: cell-based, human; conditions: MCF-7 cells, 6 days incubation, read-out: IC50 (nM), cell growth inhibition;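 further: viability read by luminescence after compound exposure, relative to DMSO vehicle-treated wells on the same plate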
Description: Compound activity was analyzed using celltiter-glo luminescent viability assay (Promega #G7572) in breast cancer cell line MCF-7. Cells grown in log phase are trypsinized and seeded into a 96-well cell culture plate at a density of 2×10^3 per well and incubated overnight at 37° C. with 5% CO2 in humidified culture chamber. The next day, compounds were prepared in 100% DMSO and were serially diluted and added into cells in the following final concentrations: 316, 100, 31.6, 10, 3.16, 1, 0.32, 0.1, 0.03, 0.01, 0.003 and 0.001 nM. As a control, same volume and concentration of DMSO vehicle control solution was added to the control wells in each plate. The cells were incubated with compounds at 37° C. culture chamber for 6 days. Promega's celltiter-glo kit was used to analyze the cell viability, according to manufacture's instruction. Briefly, fifty microliter of celltiter-glo reagent was added to each well, plate (covered with aluminum foil) was gently vibrated for 10 min to induce cell lysis at room temperature. Luminescence was measured using a SPECTRAmax i3 reader.

[2] = tested on: pooled human hepatocytes; experiment: Human hepatocyte clearance study; type: in vitro ADME; conditions: for Human Hepatocyte Remaining Percentage @ 120 min (%): human hepatocytes 0.5x10^6 viable cells/mL; for Human In vitro Clint (μL/min/10^6 cells) / Human In vitro T1/2 / Human Scale-up Clint: human hepatocytes; for Human Scale-up Clint: scaling factor 2544.3
Description: (§1) The in vitro hepatocyte clearance of compound described here was studied using pooled human hepatocytes purchased from BioreclamationlVT (Westbury, NY, Cat #X008001, Lot #TQJ). Assay was conducted according to manufacture's instruction. Briefly, mM tock solutions of test compound and positive control (Verapamil) were prepared in 100% DMSO. Thawing media (50 mL) used in the study consists of: 31 mL Williams E medium (GIBCO Cat #12551-032); 15 mL isotonic percoll (GE Healthcare Cat #17-0891-09); 500 uL 100×GlutaMax (GIBCO Cat #35050); 750 uL HEPES (GIBCO Cat #15630-080); 2.5 mL FBS (Corning Cat #35-076-CVR); 50 uL human insulin (GIBCO Cat #12585-014) and 5 uL dexamethasone (NICPBP). Incubation media is made of Williams E medium supplemented with 1×GlutaMax. Thawing medium and supplement incubation medium (serum-free) were placed in a 37° C. water bath for at least 15 minutes prior to use. Compound stock solutions were diluted to 100 μM by combining 198 μt of 50% acetonitrile/50% water and 2 μL of 10 mM stock solution. Verapamil was use as positive control in the assay. Vials of cryopreserved hepatocytes were removed from storage and thawed in a 37° C. water bath with gentle shaking. Contents of the vial were poured into the 50 mL thawing medium conical tube. Vials were centrifuged at 100 g for 10 minutes at room temperature. Thawing medium was aspirated and hepatocytes were re-suspended with serum-free incubation medium to yield ˜1.5×10^6 cells/mL. Hepatocyte viability and density were counted using a Trypan Blue exclusion, and then cells were diluted with serum-free incubation medium to a working cell density of 0.5×10^6 viable cells/mL. Then, a portion of the hepatocytes at 0.5×10^6 viable cells/mL was boiled for 5 min prior to adding to the plate as negative control to eliminate the enzymatic activity so that little or no substrate turnover should be observed. The boiled hepatocytes were used to prepare negative samples. Aliquots of 198 μL hepatocytes were dispensed into each well of a 96-well non-coated plate. The plate was placed in the incubator on an orbital shaker at 500 rpm for approximately 10 minutes. Aliquots of 2 μL of the 100 μM test compound or positive control were added into respective wells of the non-coated 96-well plate to start the reaction. This assay was performed in duplicate. The plate was incubated in the incubator on an orbital shaker at 500 rpm for the designed time points. Twenty-five microliter of contents were transferred and mixed with 6 volumes (150 μL) of cold acetonitrile with IS (200 nM imipramine, 200 nM labetalol and 200 nM diclofenac) to terminate the reaction at time points of 0, 15, 30, 60, 90 and 120 minutes. Samples were centrifuged at 3,220 g for 25 minutes and aliquots of 150 μL of the supernatants was used for LC-MS/MS analysis. For data analysis, all calculations were carried out using Microsoft Excel. Peak areas were determined from extracted ion chromatograms. The in vitro half-life (t1/2) of parent compound was determined by regression analysis of the percent parent disappearance vs. time curve. The in vitro half-life (in vitro t1/2) was determined from the slope value: in vitro t1/2=0.693/k. […] Scaling factors for in vivo intrinsic clearance prediction using human hepatocytes are listed as: liver weight (g liver/kg body weight): 25.7; hepatocyte concentration (10^6 cells/g liver): 99; scaling factor: 2544.3.

[3] = Human hepatocyte clearance study; type: in vitro ADME; conditions: pooled cryopreserved human hepatocytes (suspension); for hepatocyte CLint at 1 µM / half-life at 1 µM: human; for hepatocyte CLint at 1 µM: read-out: Human In vitro Clint (μL/min/10^6 cells); for half-life at 1 µM: read-out: Human In vitro T1/2; for CLint scaled at 1 µM: human hepatocytes, scaling factor 2544.3, read-out: Human Scale-up Clint
Description: as §1

[4] = Mouse PK study (iv 3 mpk, po 30 mpk); type: in vivo, male CD1 mice; conditions: male, CD1, whole blood; for clearance: 3 mg/kg, IV 3 mpk, read-out: Mouse IV 3 mpk CL (converted); for AUC(0-t) / half-life: 30 mg/kg, PO 30 mpk; for AUC(0-t): read-out: Mouse PO 30 mpk AUC last; for half-life: read-out: Mouse PO 30 mpk T½ (converted)
Description: Mouse PK study (iv 3 mpk, and po 30 mpk) was conducted using male CD1 mice (25-33 g) obtained from SLAC Laboratory Animal Co., LTD of Shanghai). Compound is prepared with the following formulation: 5% DMSO, 5% Solutol HS 15 and 9% HPBCD in water. For intravenous (iv) dose at 3 mpk and oral (po) dose at 30 mpk, the compound is formulated at the concentration […] and […], respectively. Compound formulation is freshly made prior to dosing in the morning. Oral dosing is via the use of oral gavage at 10 mL/kg, while iv dosing is via tail vein at 5 mL/kg. Three mice are used for each dosing route per compound per dose. Serial blood sample (30 uL whole blood at each time point) is collected into the K2EDTA tubes via facial vein at the following time points: 5 min (for iv route only), 30 min, 1, 2, 4, 6, 8, 12 and 24 hours. For each blood sample collected, immediately transfer 20 uL blood sample and mix well with 60 uL water in a 96-well plate (whole blood:water=1:3 v/v). Diluted blood samples are stored at −80C freezer until analysis. For analysis, an aliquot of 20 μL sample was added with 200 μL IS (Glipizide, 100 ng/mL) in ACN. The mixture was vortexed for 2 min and centrifuged at 5800 rpm for 10 min. An aliquot of 2 μL supernatant was injected for LC-MS/MS analysis. Compound at 2.0-3000 ng/mL in CD1 mouse diluted blood is used for calibration curve. Pharmacokinetic data are obtained and described in the table below: […]

[5] = biological target: ER (Homo sapiens (Human), UniProt P03372); experiment: MCF-7 ER degradation assay (high content imaging); type: cell-based; conditions: MCF-7 cells, 1 nM compound, DMSO control as baseline; for MCF7 ER Degradation at 4 hr (%): 4 hours treatment; for MCF7 ER Degradation at 24 hr (%): 24 hours treatment
ER, sequence (P03372 whole entry): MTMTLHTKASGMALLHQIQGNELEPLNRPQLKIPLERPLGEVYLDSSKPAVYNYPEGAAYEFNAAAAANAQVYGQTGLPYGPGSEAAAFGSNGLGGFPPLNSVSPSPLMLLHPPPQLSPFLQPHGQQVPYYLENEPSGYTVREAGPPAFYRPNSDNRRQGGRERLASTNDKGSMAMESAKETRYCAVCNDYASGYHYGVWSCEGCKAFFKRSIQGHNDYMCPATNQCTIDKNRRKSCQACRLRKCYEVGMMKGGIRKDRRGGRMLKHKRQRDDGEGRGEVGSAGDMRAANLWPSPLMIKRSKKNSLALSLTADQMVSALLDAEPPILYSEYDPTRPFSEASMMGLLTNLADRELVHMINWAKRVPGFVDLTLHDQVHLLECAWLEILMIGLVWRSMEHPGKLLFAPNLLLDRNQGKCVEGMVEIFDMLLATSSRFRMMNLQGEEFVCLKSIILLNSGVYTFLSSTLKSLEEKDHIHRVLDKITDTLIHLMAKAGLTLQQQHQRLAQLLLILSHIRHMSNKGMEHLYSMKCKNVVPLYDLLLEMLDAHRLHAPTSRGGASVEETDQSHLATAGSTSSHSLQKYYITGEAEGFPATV
Description: The level of ER degradation by SERD described in this patent was analyzed by cell based high content imaging method. […] Then, 1 μL of compound solution (in DMSO) was added to the cells to make a final concentration of 1 nM per each well of treated cells. DMSO at the same final concentration (%) per each well was used to serve as negative control on each plate. After 4 hours or 24 hours of treatment at 37° C. with 5% CO2, the cells were fixed and permeabilized. Media from each well was aspirated and cells were gently washed with 1×PBS for 5 minutes and the wash procedure was repeated 3 times. Cells was then fixed with 4% formaldehyde freshly made in 1×PBS at room temperature for 20 minutes, followed by gentle washing with 1×PBS, 3 times for 5 minute each. The assay plate was incubated with 200 μl of 1×PBS containing 0.2% Triton-X100 for 5 minutes at room temperature, cells were then washed again with 1×PBS 3 times for 5 minutes each. After this, cells were incubated with the blocking buffer (1×PBS with 5% BSA) at room temperature for 1 hour. For immunostaining, blocking buffer was removed and primary anti-ER antibody (ER1D5, Santa Cruz) diluted in blocking buffer (1:400) was added to each well and cells were incubated overnight at 4° C. The next day, cells were washed with 1×PBS for 3 times with 5 minute each. […] Cells were washed with 1×PBS for 3 times with 5 minute each time. Cells were incubated with DAPI (Beyotime; 1 μg/ml) for 10 minutes and washed with 1×PBS for 3 times with 5 minute each time. […] SERD induced ER degradation in the MCF-7 cells were measured using DMSO negative control as the baseline.

[6] = tested on: xMCF-7 xenograft tumor; experiment: Human breast cancer xMCF-7 xenograft efficacy study in mouse; type: in vivo; conditions: 2 mg/kg orally, once daily for 28 days; start at tumor ~250 mm^3
Description: To investigate the in vivo efficacy of SERD compounds described in this application, female nude mice were inoculated with human ER+ breast cancer cells xMCF-7. xMCF-7 cells are derived from MCF-7 (ATCC) tumor grown in the nude mice. Briefly, female balb/c mice (age 6-7 wk) were first inoculated subcutaneously on the back with estrogen pellet (0.5 mg, 60-day release from Innovative Research of America, Cat #SE-121). Two days later, each mouse was inoculated with 5 million xMCF-7 cells, prepared as 0.2 ml cell suspension in 1:1 mix of Eagle's MEM to cell culture media and Matrigel (Corning Cat #354234) for each injection. After tumor size reached ˜235 mm^3, mice with xMCF-7 xenograft tumor are randomized to 10 mice per group and started receiving drug treatment.
In another xMCF-7 study, treatment initiated when tumor reached ˜250 mm^3. Each drug was given at 2 mg/kg orally, once daily for 28 days.

## C[C@@H]1Cc2c([nH]c3ccccc23)[C@@H](c2c(F)cc(/C=C/C(=O)O)cc2F)N1CC(C)(F)F [Compound 29]
[1]; Homo sapiens, MCF7, 144 h
  IC50: 0.9 nM
[2]
  Human Hepatocyte Remaining Percentage @ 120 min (%): 83%
[3]
  hepatocyte CLint at 1 µM: 2.4 µL/min/1e6 cells
  half-life at 1 µM: 9.52 h
  CLint scaled at 1 µM: 6.2 mL/min/kg

## CC/C(=C(/c1ccc(/C=C/C(=O)O)cc1)c1ccc2[nH]ncc2c1)c1ccc(F)cc1Cl [GDC-0810, reference compound]
[4]
  clearance: 15.3 mL/min/kg
  AUC(0-t): 80 µM·h
  half-life: 2.9 h
[2]
  Human Hepatocyte Remaining Percentage @ 120 min (%): 24%
[3]
  hepatocyte CLint at 1 µM: 24.6 µL/min/1e6 cells
  half-life at 1 µM: 0.933 h
  CLint scaled at 1 µM: 63 mL/min/kg

## CC1Cc2c([nH]c3cc(F)ccc23)C(c2c(F)cc(/C=C/C(=O)O)cc2F)N1CC(C)(C)F (stereo not drawn) [Compound 34A]
[5]
  MCF7 ER Degradation at 4 hr (%): 21%
  MCF7 ER Degradation at 24 hr (%): 20%

## C[C@@H]1Cc2c([nH]c3ccccc23)[C@@H](c2c(F)cc(/C=C/C(=O)O)cc2F)N1CC(C)(C)F [AZD9496, reference compound]
[5]
  MCF7 ER Degradation at 4 hr (%): 17%
  MCF7 ER Degradation at 24 hr (%): 23%
[4]
  clearance: 19 mL/min/kg
  AUC(0-t): 85 µM·h
  half-life: 3.5 h
[2]
  Human Hepatocyte Remaining Percentage @ 120 min (%): 58%
[3]
  hepatocyte CLint at 1 µM: 9 µL/min/1e6 cells
  half-life at 1 µM: 2.55 h
  CLint scaled at 1 µM: 23 mL/min/kg

## C[C@@H]1Cc2c([nH]c3ccccc23)[C@@H](c2c(F)cc(OCCN3CC(CF)C3)cc2Cl)N1CC(C)(F)F [Compound 12]
[6]
  tumor growth inhibition and tumor regression (FIG. 2): more efficacious than AZD9496
[1]; Homo sapiens, MCF7, 144 h
  IC50: 0.26 nM

## C[C@@H]1Cc2c([nH]c3ccccc23)[C@@H](c2c(F)cc(/C=C/C(=O)O)cc2Cl)N1CC(C)(C)F [Compound 20]
[5]
  MCF7 ER Degradation at 4 hr (%): 25%
  MCF7 ER Degradation at 24 hr (%): 21%
[1]
  IC50: 0.3 nM
[2]
  Human In vitro Clint (μL/min/10^6 cells): 5.6 μL/min/10^6 cells
  Human In vitro T1/2: 4.1 h
  Human Hepatocyte Remaining Percentage @ 120 min (%): 70%
  Human Scale-up Clint: 14 mL/min/kg

## C[C@@H]1Cc2c([nH]c3ccccc23)[C@@H](c2c(F)cc(OCCN3CC(CF)C3)cc2F)N1CC(C)(F)F [Compound 1]
[1]
  IC50: 0.3 nM
[2]
  Human In vitro Clint (μL/min/10^6 cells): 1.6 μL/min/10^6 cells
  Human In vitro T1/2: 14.2 h
  Human Hepatocyte Remaining Percentage @ 120 min (%): 88%
  Human Scale-up Clint: 4.1 mL/min/kg

## CC1Cc2c([nH]c3ccc(F)cc23)C(c2c(F)cc(/C=C/C(=O)O)cc2F)N1CC(C)(C)F (stereo not drawn) [Compound 46A]
[5]
  MCF7 ER Degradation at 4 hr (%): 25%
  MCF7 ER Degradation at 24 hr (%): 20%

## CC1Cc2c([nH]c3ccc(O)cc23)C(c2c(F)cc(/C=C/C(=O)O)cc2F)N1CC(C)(C)F (stereo not drawn) [Compound 23]
[1]
  IC50: 4.2 nM

## C[C@@H]1Cc2c([nH]c3ccccc23)[C@@H](c2c(F)cc(/C=C/C(=O)O)cc2Cl)N1CC(C)(F)F [Compound 49]
[1]; Homo sapiens, MCF7, 144 h
  IC50: 0.5 nM

## CC1Cc2c([nH]c3ccc(Cl)cc23)C(c2c(F)cc(/C=C/C(=O)O)cc2F)N1CC(C)(C)F (single isomer, unassigned) [Compound 42A]
[1]
  IC50: 1.9 nM

## CC1Cc2c([nH]c3ccc(F)cc23)C(c2c(F)cc(/C=C/C(=O)O)cc2F)N1CC(C)(F)F (stereo not drawn) [Compound 33A]
[1]; Homo sapiens, MCF7, 144 h
  IC50: 1.2 nM

## CC1Cc2c(oc3ccccc23)C(c2c(F)cc(OCCN3CC(CF)C3)cc2F)N1CC(C)(C)F (stereo not drawn) [Compound 17A]
[1]
  IC50: 0.8 nM

## CC(C)(F)CN1C(c2c(F)cc(/C=C/C(=O)O)cc2F)c2[nH]c3ccccc3c2CC1C(F)(F)F (stereo not drawn) [Compound 31A]
[1]; Homo sapiens, MCF7, 144 h
  IC50: 0.4 nM

## CC1Cc2c(oc3ccccc23)C(c2c(Cl)cc(OCCN3CC(CF)C3)cc2Cl)N1CC(C)(C)F (stereo not drawn) [Compound 18]
[1]; Homo sapiens, MCF7, 144 h
  IC50: 8.9 nM

## C[C@@H]1Cc2c([nH]c3ccccc23)[C@@H](c2c(F)cc(OCCN3CC(CF)C3)cc2Cl)N1CC(C)(C)F [Compound 11]
[1]; Homo sapiens, MCF7, 144 h
  IC50: 0.4 nM
[2]
  Human Hepatocyte Remaining Percentage @ 120 min (%): 83%
[3]
  hepatocyte CLint at 1 µM: 2 µL/min/1e6 cells
  half-life at 1 µM: 11.1 h
  CLint scaled at 1 µM: 5.3 mL/min/kg

## C[C@@H]1Cc2c([nH]c3ccccc23)[C@@H](c2c(F)cc(OCCN3CCCCC3)cc2F)N1CC(C)(F)F [Compound 3]
[1]; Homo sapiens, MCF7, 144 h
  IC50: 0.6 nM

## CCC1Cc2c([nH]c3ccccc23)C(c2c(F)cc(/C=C/C(=O)O)cc2F)N1CC(C)(C)F (single isomer, unassigned) [Compound 40B]
[1]
  IC50: > 100 nM

## CC(C)CN1C(C)Cc2c([nH]c3ccc(F)cc23)C1c1c(F)cc(/C=C/C(=O)O)cc1F (stereo not drawn) [Compound 39A]
[1]; Homo sapiens, MCF7, 144 h
  IC50: 2.6 nM
